Data published in patent US20240043382A1, “MODIFIED INDOLE ALKALOIDS FOR THERAPEUTIC USES” (priority 2020, published 2024).
pEC50: −log10 of the molar value.

Columns and labels:
[1] = biological target: T1, human 5-HT2A (h5-HT2A) receptor (Homo sapiens, UniProt P28223); test: 5-HT2A receptor functional assay (Gq-mediated calcium flux) of saliva-hydrolyzed modified indole alkaloids; format: cell-based; conditions: 5HT2A agonist activity, compounds hydrolyzed by treatment with human saliva; for pEC50: Flp-In T-REx 293 cells expressing h5-HT2A, peak calcium flux; for Emax % 5-HT (± SEM): normalized to 5-HT (100%)
T1 construct: host or cells: Flp-In T-REx 293 cells
T1 sequence (P28223 whole entry): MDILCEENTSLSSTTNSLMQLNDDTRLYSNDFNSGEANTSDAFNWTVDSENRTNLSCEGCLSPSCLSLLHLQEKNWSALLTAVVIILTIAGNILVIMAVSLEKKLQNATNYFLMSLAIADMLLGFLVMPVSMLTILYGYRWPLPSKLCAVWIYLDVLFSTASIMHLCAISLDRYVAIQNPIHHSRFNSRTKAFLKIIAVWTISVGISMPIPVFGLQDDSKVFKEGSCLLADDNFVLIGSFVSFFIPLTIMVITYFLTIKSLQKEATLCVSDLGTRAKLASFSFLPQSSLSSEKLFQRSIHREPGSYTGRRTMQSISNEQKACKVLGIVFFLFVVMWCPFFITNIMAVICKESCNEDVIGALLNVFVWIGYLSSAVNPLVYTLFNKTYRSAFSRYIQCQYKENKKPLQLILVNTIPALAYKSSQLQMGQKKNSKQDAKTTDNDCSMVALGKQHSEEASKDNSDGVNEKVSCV

[2] = biological target: T2, human 5-HT2C (h5-HT2C) receptor (Homo sapiens, UniProt P28335); test: 5-HT2C receptor functional assay (Gq-mediated calcium flux) of saliva-hydrolyzed modified indole alkaloids; format: cell-based; conditions: 5HT2C agonist activity, compounds hydrolyzed by treatment with human saliva; for pEC50: Flp-In T-REx 293 cells expressing h5-HT2C, peak calcium flux; for Emax % 5-HT (± SEM): normalized to 5-HT (100%)
T2 construct: host or cells: Flp-In T-REx 293 cells
T2 sequence (P28335 33-458): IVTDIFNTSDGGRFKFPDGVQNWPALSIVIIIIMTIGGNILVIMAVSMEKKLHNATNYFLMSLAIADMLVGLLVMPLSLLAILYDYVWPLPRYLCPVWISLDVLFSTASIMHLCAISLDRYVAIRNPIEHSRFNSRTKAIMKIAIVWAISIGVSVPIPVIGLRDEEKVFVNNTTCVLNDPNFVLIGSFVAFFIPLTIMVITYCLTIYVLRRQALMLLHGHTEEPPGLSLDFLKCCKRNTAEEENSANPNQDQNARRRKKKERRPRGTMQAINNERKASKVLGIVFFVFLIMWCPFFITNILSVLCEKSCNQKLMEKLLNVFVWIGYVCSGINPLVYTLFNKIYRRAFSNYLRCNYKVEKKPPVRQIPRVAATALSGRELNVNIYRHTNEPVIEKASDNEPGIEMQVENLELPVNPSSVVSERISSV

[3] = biological target: T1, human 5-HT2A (h5-HT2A) receptor; test: 5-HT2A receptor functional assay (calcium flux) of modified indole alkaloids digested with calf intestinal alkaline phosphatase; format: cell-based; conditions: after 2 hours with 100 units calf intestinal alkaline phosphatase, pH 7.9, 25° C.; compared to 5-HT
Description: 1 mM of 4-3-(2-(dipropylamino)ethyl)-1H-indol-4-yl dihydrogen phosphate (Compound A) was incubated with 100 units of calf intestinal alkaline phosphatase for 2 hours in buffer containing 50 mM Potassium acetate, 20 mM Tris-acetate, 10 mM Magnesium acetate, and 100 μg/ml BSA at pH 7.9 and 25° C. 1 mM of 4-3-(2-(diisopropylamino)ethyl)-1H-indol-4-yl dihydrogen phosphate (Compound B) was incubated with 100 units of calf intestinal alkaline phosphatase for 2 hours in buffer containing 50 mM Potassium acetate, 20 mM Tris-acetate, 10 mM Magnesium acetate, and 100 μg/ml BSA at pH 7.9 and 25° C. The resulting solutions containing dephosphorylated products were used in a 5-HT2A receptor functional assay. […]
Before the experiment, plates were allowed to equilibrate to room temperature, and calcium flux was measured using a […] cellular screening system (Molecular Devices, Sunnyvale, CA). Plates were read for fluorescence initially for 10 s (1 read per second) to establish a baseline and then stimulated with drug dilutions or buffer and read for an additional 120 s. Peak fluorescence in each well was normalized to the maximum fold increase over baseline. […] Data were analyzed using the sigmoidal dose-response function of Prism 5.0 or 8.0 (GraphPad Software, San Diego, CA). Relative activity (RA) was expressed as the logarithm of the ratio of Emax over EC50 parameter estimates. […]

[4] = Digestion of modified indole alkaloids with human salivary samples (LC-MS); format: in vitro ADME; conditions: 100 μM compound, 50 μL human saliva, 2 hours at 37° C., pH 7.5
Description: Human saliva samples were collected 25 minutes before food intake after 8 hours fasting from an adult subject with no clinical symptoms. For saliva collection, saliva samples were obtained by passive drool into sterile 10 mL centrifuge tubes over a 5-min period. Immediately after collection, saliva samples were centrifuged (500 g for 10 min at 4° C.) and the supernatant was recovered and used immediately or stored at −80° C. until further use.
Eleven 100-μL reaction mixtures were prepared, consisting of: • 50 mM HEPES pH 7.5 • 50 mM NaCl • 100 μM modified indole alkaloid product (from Reactions 3, 24, 39-47, respectively) • 50 μL, of human saliva sample • 2 mM calcium chloride • 5 mM magnesium chloride
The reaction mixtures were digested for 2 hours at 37° C., and heated to 80° C. for 5 minutes to terminate the reactions. The reaction mixtures were then centrifuged at 30,000 ref and the supernatant transferred to a fresh sample tube.
One microliter of the sample was injected onto a ZORBAX StableBond-C18, 1.8 um, 2.1×50 mm column at 20° C. using a 0.3 mL/min flow rate and major ion species were detected with a 6520 Accurate-Mass Q-TOF LC-MS (Agilent) in positive mode. The mobile phase consisted of a mixture of 0.1% formic acid in acetonitrile (v/v) and 0.1% formic acid in water (v/v) was eluted under the following gradient conditions (shown in relation to acetonitrile content): 0 min-10%, 6 min-100%, 7 min-10%, 14 min-10%. The mobile phase was delivered at a flow rate of 0.3 mL/min and the total analytical run time was 14 min.

| SMILES | pEC50 [1] | Emax % 5-HT (± SEM) [1] | pEC50 [2] | Emax % 5-HT (± SEM) [2] | functional agonism of 5HT2A receptor, peak calcium flux response (FIG. 5) [3] | conversion by human saliva to 4-hydroxy-N,N-diisopropyltryptamine (LC-MS) [4] |
| --- | --- | --- | --- | --- | --- | --- |
| CCN(C)CCc1c[nH]c2cccc(O[C@H]3O[C@H](CO)[C@@H](O)[C@H](O)[C@H]3O)c12 (stereo in doubt) [Hydrolyzed Compound A-1, 2-((3-(2-(ethyl(methyl)amino)ethyl)-1H-indol-4-yl)oxy)-6-(hydroxymethyl)tetrahydro-2H-pyran-3,4,5-triol] | 8.40 | 96.7 ± 1.1 % 5-HT | 7.52 | 89.9 ± 2.1 % 5-HT |  |  |
| CCCN(C)CCc1c[nH]c2cccc(O[C@H]3O[C@H](CO)[C@@H](O)[C@H](O)[C@H]3O)c12 (stereo in doubt) [Hydrolyzed Compound A-2, 2-(hydroxymethyl)-6-((3-(2-(methyl(propyl)amino)ethyl)-1H-indol-4-yl)oxy)tetrahydro-2H-pyran-3,4,5-triol] | 8.42 | 98.0 ± 1.1 % 5-HT | 7.32 | 90.7 ± 1.5 % 5-HT |  |  |
| CCN(CC)CCc1c[nH]c2cccc(O[C@H]3O[C@H](CO)[C@@H](O)[C@H](O)[C@H]3O)c12 (stereo in doubt) [Hydrolyzed Compound A-4, 2-((3-(2-(diethylamino)ethyl)-1H-indol-4-yl)oxy)-6-(hydroxymethyl)tetrahydro-2H-pyran-3,4,5-triol] | 8.19 | 100.1 ± 1.1 % 5-HT | 6.59 | 80.1 ± 1.9 % 5-HT |  |  |
| CCCN(CCC)CCc1c[nH]c2cccc(O[C@H]3O[C@H](CO)[C@@H](O)[C@H](O)[C@H]3O)c12 (stereo in doubt) [Hydrolyzed Compound A-6, 2-((3-(2-(dipropylamino)ethyl)-1H-indol-4-yl)oxy)-6-(hydroxymethyl)tetrahydro-2H-pyran-3,4,5-triol] | 8.78 | 103.2 ± 1.0 % 5-HT | 6.67 | 84.2 ± 1.0 % 5-HT |  |  |
| CC(C)N(CCc1c[nH]c2cccc(O[C@H]3O[C@H](CO)[C@@H](O)[C@H](O)[C@H]3O)c12)C(C)C (stereo in doubt) [Hydrolyzed Compound A-7, 2-((3-(2-(diisopropylamino)ethyl)-1H-indol-4-yl)oxy)-6-(hydroxymethyl)tetrahydro-2H-pyran-3,4,5-triol] | 8.17 | 103 ± 1.2 % 5-HT | 5.81 | 94.4 ± 1.2 % 5-HT |  |  |
| C=CCN(C)CCc1c[nH]c2cccc(O[C@H]3O[C@H](CO)[C@@H](O)[C@H](O)[C@H]3O)c12 (stereo in doubt) [Hydrolyzed Compound A-8, 2-((3-(2-(allyl(methyl)amino)ethyl)-1H-indol-4-yl)oxy)-6-(hydroxymethyl)tetrahydro-2H-pyran-3,4,5-triol] | 8.44 | 102 ± 1.0 % 5-HT | 7.31 | 81.5 ± 2.4 % 5-HT |  |  |
| CN(CCc1c[nH]c2cccc(O[C@H]3O[C@H](CO)[C@@H](O)[C@H](O)[C@H]3O)c12)C1CC1 (stereo in doubt) [Hydrolyzed Compound A-9, 2-((3-(2-(cyclopropyl(methyl)amino)ethyl)-1H-indol-4-yl)oxy)-6-(hydroxymethyl)tetrahydro-2H-pyran-3,4,5-triol] | 8.29 | 99.4 ± 2.0 % 5-HT | 6.83 | 79.1 ± 6.1 % 5-HT |  |  |
| CCCN(CCC)CCc1c[nH]c2cccc(OP(=O)(O)O)c12 [Compound A, 4-3-(2-(dipropylamino)ethyl)-1H-indol-4-yl dihydrogen phosphate] |  |  |  |  | 5HT2A agonism |  |
| CC(C)N(CCc1c[nH]c2cccc(OP(=O)(O)O)c12)C(C)C [Compound B, 4-3-(2-(diisopropylamino)ethyl)-1H-indol-4-yl dihydrogen phosphate] |  |  |  |  | 5HT2A agonism |  |
| CC(C)N(CCc1c[nH]c2cccc(OC(=O)CC(=O)O)c12)C(C)C [Compound D, 3-((3-(2-(diisopropylamino)ethyl)-1H-indol-4-yl)oxy)-3-oxopropanoic acid] |  |  |  |  |  | completely hydrolyzed |
| CC(=O)CC(=O)Oc1cccc2[nH]cc(CCN(C(C)C)C(C)C)c12 [Compound E, 3-(2-(diisopropylamino)ethyl)-1H-indol-4-yl 3-oxobutanoate] |  |  |  |  |  | completely hydrolyzed |
| CCCN(CC)CCc1c[nH]c2cccc(O[C@H]3O[C@H](CO)[C@@H](O)[C@H](O)[C@H]3O)c12 [Hydrolyzed Compound A-5, 2-((3-(2-(ethyl(propyl)amino)ethyl)-1H1-indol-4-yl)oxy)-6-(hydroxymethyl)tetrahydro-2H-pyran-3,4,5-triol] | 8.50 | 99.4 ± 1.2 % 5-HT | 6.93 | 89.4 ± 2.6 % 5-HT |  |  |
| CC(C)N(CCc1c[nH]c2cccc(O[C@H]3O[C@H](CO)[C@@H](O)[C@H](O)[C@H]3O)c12)C(C)C [Hydrolyzed Compound A-7, 2-((3-(2-(diisopropylamino)ethyl)-1H-indol-4-yl)oxy)-6-(hydroxymethyl)tetrahydro-2H-pyran-3,4,5-triol] |  |  |  |  |  | completely deglycosylated |
